Test results taken from patent US20240336606A1 (Suzhou Zelgen Biopharmaceuticals Co., Ltd., priority 2020, published 2024).

Molecular target: T1, binding of KRAS^G12C to SOS1 (Homo sapiens, UniProt Q07889)
T1 construct: Tag1 (unspecified)
T1 sequence (Q07889 1-1333): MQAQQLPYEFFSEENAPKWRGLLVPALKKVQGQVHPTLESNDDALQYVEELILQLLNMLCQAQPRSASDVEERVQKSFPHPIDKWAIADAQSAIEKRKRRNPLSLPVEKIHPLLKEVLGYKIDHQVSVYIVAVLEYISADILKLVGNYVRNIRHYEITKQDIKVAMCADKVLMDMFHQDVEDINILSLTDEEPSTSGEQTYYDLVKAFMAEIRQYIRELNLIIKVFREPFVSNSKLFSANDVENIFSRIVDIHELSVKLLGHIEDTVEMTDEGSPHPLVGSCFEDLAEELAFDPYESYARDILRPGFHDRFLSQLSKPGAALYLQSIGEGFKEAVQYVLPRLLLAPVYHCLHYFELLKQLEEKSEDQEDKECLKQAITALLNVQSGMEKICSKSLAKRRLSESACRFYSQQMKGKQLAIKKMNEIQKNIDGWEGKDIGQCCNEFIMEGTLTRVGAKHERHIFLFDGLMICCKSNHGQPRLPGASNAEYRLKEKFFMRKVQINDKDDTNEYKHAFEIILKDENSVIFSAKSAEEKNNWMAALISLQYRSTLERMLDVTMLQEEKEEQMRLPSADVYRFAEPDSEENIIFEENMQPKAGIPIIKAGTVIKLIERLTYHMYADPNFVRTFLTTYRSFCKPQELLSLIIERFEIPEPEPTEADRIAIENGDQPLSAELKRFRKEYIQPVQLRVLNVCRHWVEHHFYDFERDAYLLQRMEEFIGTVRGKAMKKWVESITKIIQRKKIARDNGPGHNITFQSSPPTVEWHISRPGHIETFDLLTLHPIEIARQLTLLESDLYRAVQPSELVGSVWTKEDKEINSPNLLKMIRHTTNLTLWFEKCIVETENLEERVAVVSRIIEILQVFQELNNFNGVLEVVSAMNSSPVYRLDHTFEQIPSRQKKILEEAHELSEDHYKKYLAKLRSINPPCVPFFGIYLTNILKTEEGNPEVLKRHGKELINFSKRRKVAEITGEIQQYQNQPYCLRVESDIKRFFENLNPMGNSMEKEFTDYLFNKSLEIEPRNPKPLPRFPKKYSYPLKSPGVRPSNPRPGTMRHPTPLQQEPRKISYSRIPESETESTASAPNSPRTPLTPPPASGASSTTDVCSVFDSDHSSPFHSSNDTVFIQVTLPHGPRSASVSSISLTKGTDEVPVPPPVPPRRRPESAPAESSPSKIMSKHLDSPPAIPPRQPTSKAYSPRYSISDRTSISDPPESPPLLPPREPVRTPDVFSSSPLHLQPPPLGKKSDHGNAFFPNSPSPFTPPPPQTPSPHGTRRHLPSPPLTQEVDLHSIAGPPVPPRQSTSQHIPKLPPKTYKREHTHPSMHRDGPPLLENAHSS
Assay: Inhibition of the binding of KRAS^G12C to SOS1
Settings: Tag1-SOS1 / Tag2-KRAS^G12C, 2 h incubation at room temperature; read-out: IC50 (nM), inhibitory activity on the binding of KRAS^G12C to SOS1
Experimental: • (1) Gradient dilution of the test compounds: 10 mM mother solution (dissolved in 100% DMSO) was added to a 384-well test plate, the final content of DMSO being 0.25%.
(2) 5 μL of Tag1-SOS1 solution was added to the test plate, and 5 μL of dilution buffer was added to the control group.
(3) 5 μL of Tag2-KRAS^G12C solution was added to the test plate.
(4) 10 μL of Anti-Tag1-Tb3+ and Anti-Tag2-XL665 detection solution were added to the test plate. The plate was centrifuged at 1000 rpm for 1 min and incubated at room temperature for 2 h.
(6) The IC50 values for the compounds were finally calculated using GraphPad Prism software, and a curve was fit and plotted.
The inhibitory activity of the compounds of the examples of the present invention on the binding of KRAS^G12C enzyme to SOS1 is shown in Table 1.

`COc1cc2nc(C)nc(N[C@H](C)c3cc(N)cc(C(F)(F)F)c3)c2cc1OCC1(C(C)OC)CC1` (single isomer, unassigned) [Example 65A] was tested, and the IC50 was 18 nM.
`COc1cc2nc(C)nc(N[C@H](C)c3cc(N)cc(C(F)(F)F)c3)c2cc1OCC1(C(C)OC)CC1` (single isomer, unassigned) [Example 65B] was tested, and the IC50 was 7.3 nM.
For `COc1cc2nc(C)nc(N[C@H](C)c3cccc(C(F)(F)C(C)(C)O)c3F)c2cc1OC[C@@H]1CCCN1C` [Example 1], the IC50 was 4.6 nM.
`COc1cc2nc(C)nc(N[C@H](C)c3cc(N)cc(C(F)(F)F)c3)c2cc1OC[C@@H]1CCCN1C` [Example 2] was tested, and the IC50 was 8.5 nM.
In the case of `COc1cc2nc(C)nc(N[C@H](C)c3cc(N)cc(C(F)(F)F)c3)c2cc1OC[C@@H]1CCC(=O)N1C` [Example 6, (S)-5-(((4-(((R)-1-(3-amino-5-(trifluoromethyl)phenyl)ethyl)amino)-7-methoxy-2-methylquinazolin-6-yl)oxy)methyl)-1-methylpyrrolin-2-one], the IC50 is reported as 13 nM.
Compound `COc1cc2nc(C)nc(N[C@H](C)c3cc(N)cc(C(F)(F)F)c3)c2cc1OCCOC1CC1` [Example 7, (R)—N-(1-(3-amino-5-(trifluoromethyl)phenyl)ethyl)-6-(2-cyclopropoxy)-7-methoxy-2-meth ylquinazolin-4-amine] has an IC50 of 3.3 nM.
In the case of `COc1cc2nc(C)nc(N[C@H](C)c3cc(N)cc(C(F)(F)F)c3)c2cc1OCCN(C)C1CC1` [Example 8], the IC50 is reported as 1.9 nM.
Compound `COc1cc2nc(C)nc(N[C@H](C)c3cccc(C(F)(F)C(C)(C)O)c3F)c2cc1OCCN(C)CC1CCC1` [Example 9] has an IC50 of 3.4 nM.
With `COc1cc2nc(C)nc(N[C@H](C)c3cc(N)cc(C(F)(F)F)c3)c2cc1OCCN(C)CC1CCC1` [Example 10] the IC50 was 2.9 nM.
`COc1cc2nc(C)nc(N[C@H](C)c3cc(N)cc(C(F)(F)F)c3)c2cc1OCC1(CN(C)C)CC1` [Example 11, (R)—N-(1-(3-amino-5-(trifluoromethyl)phenyl)ethyl)-6-((1-((dimethylamino)methyl)cyclopropyl)methoxy)-7-methoxy-2-methylauinazolin-4-amine] was tested, and the IC50 was 3.6 nM.
With `COc1cc2nc(C)nc(N[C@H](C)c3cccc(C(F)(F)C(C)(C)O)c3F)c2cc1OCC1(CN(C)C)CC1` [Example 12] the IC50 was 8.3 nM.
`COc1cc2nc(C)nc(N[C@H](C)c3cc(N)cc(C(F)(F)F)c3)c2cc1OCCN(C)S(C)(=O)=O` [Example 13] was tested, and the IC50 was 2.5 nM.
In the case of `COc1cc2nc(C)nc(N[C@H](C)c3cc(N)cc(C(F)(F)F)c3)c2cc1OC[C@@H]1CCCN1C(C)=O` [Example 14], the IC50 is reported as 16 nM.
With `COc1cc2nc(C)nc(N[C@H](C)c3cc(N)cc(C(F)(F)F)c3)c2cc1OCC1(CN2CCOCC2)CC1` [Example 15, (R)—N-(1-(3-amino-5-(trifluoromethyl)phenyl)ethyl)-7-methoxy-2-methyl-6-((1-(morpholinylmethyl)cyclopropyl)methoxy)quinazolin-4-amine] the IC50 was 6.9 nM.
In the case of `COc1cc2nc(C)nc(N[C@H](C)c3cccc(C(F)(F)F)c3F)c2cc1OC[C@@H]1CCCN1C(=O)OC(C)(C)C` [Example 16], the IC50 is reported as 1090 nM.
`COc1cc2nc(C)nc(N[C@H](C)c3cccc(C(F)(F)F)c3F)c2cc1OC[C@@H]1CCCN1` [Example 17, N—((R)-1-(2-Fluoro-3-(trifluoromethyl)phenyl)ethyl)-7-methoxy-2-methyl-6-(((S)-pyrrolin-2-yl)methoxy)quinazolin-4-amine] gave an IC50 of 70 nM.
For `COc1cc2nc(C)nc(N[C@H](C)c3cccc(C(F)(F)F)c3F)c2cc1OC[C@@H]1CCCN1C` [Example 18, N—((R)-1-(2-fluoro-3-(trifluoromethyl)phenyl)ethyl)-7-methoxy-2-methyl-6-(((S)-1-methylpyrrolin-2-yl)methoxy)quinazolin-4-amine], the IC50 was 36 nM.
In the case of `COc1cc2nc(C)nc(N[C@H](C)c3cccc(C(F)(F)C(C)(C)O)c3F)c2cc1OCCN(C)CC1CC(F)(F)C1` [Example 19], the IC50 is reported as 9.4 nM.
`COc1cc2nc(C)nc(N[C@H](C)c3cccc(C(F)(F)F)c3F)c2cc1OC[C@@H]1CCCN1S(C)(=O)=O` [Example 20, N—((R)-1-(2-fluoro-3-(trifluoromethyl)phenyl)ethyl)-7-methoxy-2-methyl-6-(((S)-1-(methylsulfonyl)pyrrolidin-2-yl)methoxy)quinazolin-4-amine] gave an IC50 of 121 nM.
With `COc1cc2nc(C)nc(N[C@H](C)c3cc(N)cc(C(F)(F)F)c3)c2cc1OCCN(C)CC1(F)CC1` [Example 21, (R)—N-(1-(3-amino-5-(trifluoromethyl)phenyl)ethyl)-6-(2-(((1-fluorocyclopropyl)methyl)(methyl)amino)ethoxy)-7-methoxy-2-methylquinazolin-4-amine] the IC50 was 4.7 nM.
In the case of `COc1cc2nc(C)nc(N[C@H](C)c3cc(N)cc(C(F)(F)F)c3)c2cc1OCCN(C)CC1CC(F)(F)C1` [Example 22, (R)—N-(1-(3-amino-5-(trifluoromethyl)phenyl)ethyl)-6-(2-(((3,3-difluorocyclobutyl)methyl)(methyl)amino)ethoxy)-7-methoxy-2-methylquinazolin-4-amine], the IC50 is reported as 7 nM.
`COc1cc2nc(C)nc(N[C@H](C)c3cccc(C(F)(F)C(C)(C)O)c3F)c2cc1OC[C@H]1CNCCO1` [Example 23] was tested, and the IC50 was 7.9 nM.
Compound `COc1cc2nc(C)nc(N[C@H](C)c3cccc(C(F)(F)C(C)(C)O)c3F)c2cc1OC[C@@H]1CNCCO1` [Example 24] has an IC50 of 7.7 nM.
With `COc1cc2nc(C)nc(N[C@H](C)c3cccc(C(F)(F)C(C)(C)O)c3F)c2cc1OC[C@@H]1CN(C)CCO1` [Example 25] the IC50 was 3.9 nM.
With `COc1cc2nc(C)nc(N[C@H](C)c3cccc(C(F)(F)C(C)(C)O)c3F)c2cc1OC[C@@H]1COCCO1` [Example 26, 1-(3-((R)-1-((6-(((S)-1,4-Dioxan-2-yl)methoxy)-7-methoxy-2-methylquinazolin-4-yl)amino)ethyl)-2-fluorophenyl)-1,1-difluoro-2-methylpropan-2-ol] the IC50 was 9.2 nM.
`COc1cc2nc(C)nc(N[C@H](C)c3cccc(C(F)(F)C(C)(C)O)c3F)c2cc1OC[C@H]1COCCO1` [Example 27, 1-(3-((R)-1-((6-(((R)-1,4-Dioxan-2-yl)methoxy)-7-methoxy-2-methylquinazolin-4-yl)amino)ethyl)-2-fluorophenyl)-1,1-difluoro-2-methylpropan-2-ol] was tested, and the IC50 was 8.5 nM.
`COc1cc2nc(C)nc(N[C@H](C)c3cc(N)cc(C(F)(F)F)c3)c2cc1OC[C@@H]1COCCO1` [Example 28, 6-(((S)-1,4-Dioxan-2-yl)methoxy)-N—((R)-1-(3-amino-5-(trifluoromethyl)phenyl)ethyl)-7-m ethoxy-2-methylquinazolin-4-amine] gave an IC50 of 7.9 nM.
`COc1cc2nc(C)nc(N[C@H](C)c3cccc(C(F)(F)C(C)(C)O)c3F)c2cc1OC[C@@H]1CN(S(C)(=O)=O)CCO1` [Example 29] gave an IC50 of 4.7 nM.
`COc1cc2nc(C)nc(N[C@H](C)c3cc(N)cc(C(F)(F)F)c3)c2cc1OC[C@@H]1CCCN1S(C)(=O)=O` [Example 32, N—((R)-1-(3-amino-5-(trifluoromethyl)phenyl)ethyl)-7-methoxy-2-methyl-6-(((S)-1-(methylsulfonyl)pyrrolidin-2-yl)methoxy)quinazolin-4-amine] gave an IC50 of 31 nM.
Work on `COc1cc2nc(C)nc(N[C@H](C)c3cccc(C(F)(F)C(C)(C)O)c3F)c2cc1OCCN(C)S(C)(=O)=O` [Example 33, (R)—N-(2-((4-((1-(3-(1,1-Difluoro-2-hydroxy-2-methylpropyl)-2-fluorophenyl)ethyl)amino)-7-methoxy-2-methylquinazolin-6-yl)oxy)ethyl)-N-methylmethanesulfonamide] yielded an IC50 of 7.5 nM.
